Test results from US20250042920A1 (OCEAN UNIVERSITY OF CHINA, priority 2021, published 2025).

Columns and labels:
[1] = target: MNK1 (Homo sapiens, UniProt Q9BUB5); test: MNK1 kinase inhibition assay (LANCE Ultra kinase activity assay, PerkinElmer); format: biochemical; conditions: 450 μM ATP; for IC50: five concentrations 10000-1 nM; for inhibition at 1 µM: inhibition rate at 1000 nM compound, 60 min, 25° C., read-out: Inhibitory activity(1 μM) MNK1
Description: (§1) MNK1 and MNK2 kinase inhibition assays were performed using LANCE Ultra kinase activity assay developed by PerkinElmer. […] The test steps are as follows: At 25° C., 1.00 ng MNK1 or 0.05 ng MNK2 was prepared with different concentrations (10000, 1000, 100, 10, 1 nM) of the tested compound to form a total volume of 10 μL reaction mixture (MNK1: 12.5 nM CREB, 450 μM ATP, 2 mM DTT, 1× buffer; MNK2: 12.5 nM CREB, 100 μM ATP, 2 mM DTT, 1×buffer), and incubation for 60 min. The reaction was terminated by adding 5 μL EDTA/Detection buffer and 5 μL Eu-CREB/Detection buffer. The ratio of HTRF signals at 615 nm and 665 nm was detected after 60 min of incubation. The inhibition rate was calculated by measuring the compounds at 1000 nM.
(§2) Then five different concentrations (10000, 1000, 100, 10, 1 nM) of the tested compounds were measured, and the IC50 value was calculated according to the inhibition rate fitting curve.

[2] = target: MNK2 (Homo sapiens, UniProt Q9HBH9); test: MNK2 kinase inhibition assay (LANCE Ultra kinase activity assay, PerkinElmer); format: biochemical; conditions: 100 μM ATP; for IC50: five concentrations 10000-1 nM; for inhibition at 1 µM: inhibition rate at 1000 nM compound, 60 min, 25° C., read-out: Inhibitory activity(1 μM) MNK2
Description: as §1, §2

Chain of MNK1 (Q9BUB5 whole entry): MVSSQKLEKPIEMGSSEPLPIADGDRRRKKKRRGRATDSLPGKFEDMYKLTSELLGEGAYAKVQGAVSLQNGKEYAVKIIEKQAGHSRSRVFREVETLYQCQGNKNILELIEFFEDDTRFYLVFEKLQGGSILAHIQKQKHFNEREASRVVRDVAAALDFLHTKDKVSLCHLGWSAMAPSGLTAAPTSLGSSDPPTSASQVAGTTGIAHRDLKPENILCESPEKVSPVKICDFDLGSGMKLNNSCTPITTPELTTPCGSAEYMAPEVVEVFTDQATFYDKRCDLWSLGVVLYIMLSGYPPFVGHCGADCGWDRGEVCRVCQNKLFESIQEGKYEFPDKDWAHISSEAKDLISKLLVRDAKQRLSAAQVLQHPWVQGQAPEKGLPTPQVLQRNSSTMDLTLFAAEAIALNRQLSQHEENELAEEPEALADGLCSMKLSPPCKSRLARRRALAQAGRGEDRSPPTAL
Chain of MNK2 (Q9HBH9 whole entry): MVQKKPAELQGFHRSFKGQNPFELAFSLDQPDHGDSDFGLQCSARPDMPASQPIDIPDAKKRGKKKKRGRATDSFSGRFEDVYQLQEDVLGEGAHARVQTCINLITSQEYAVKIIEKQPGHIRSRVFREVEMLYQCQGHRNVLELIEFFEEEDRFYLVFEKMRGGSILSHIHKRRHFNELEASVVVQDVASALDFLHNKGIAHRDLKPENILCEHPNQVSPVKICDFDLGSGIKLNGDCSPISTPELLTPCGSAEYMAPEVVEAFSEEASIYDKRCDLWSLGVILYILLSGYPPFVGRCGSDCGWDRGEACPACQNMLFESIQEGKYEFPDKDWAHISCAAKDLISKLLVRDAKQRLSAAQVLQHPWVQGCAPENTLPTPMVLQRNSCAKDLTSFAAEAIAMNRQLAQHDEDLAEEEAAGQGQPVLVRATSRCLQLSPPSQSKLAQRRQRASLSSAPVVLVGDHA

Compound | IC50 [1] [nM] | inhibition at 1 µM [1] [%] | IC50 [2] [nM] | inhibition at 1 µM [2] [%]
CN(C)C1CCN(C(=O)c2ccc(-c3nn4c(-c5ccc(O)cc5)cnc4s3)cc2)CC1 [Compound 14, (4-(dimethylamino)piperidin-1-yl)(4-(5-(4-hydroxyphenyl)imidazo[2,1-b][1,3,4]thiadiazol-2-yl)phenyl)methanone] | < 50 | > 75 | < 50 | > 75
COc1ccc(-c2cnc3sc(-c4ccc(C(=O)N5CCC(N(C)C)CC5)cc4)nn23)cc1 [Compound 15, (4-(dimethylamino)piperidin-1-yl)(4-(5-(4-methoxyphenyl)imidazo[2,1-b][1,3,4]thiadiazol-2-yl)phenyl)methanone] | < 50 | > 75 | < 50 | > 75
CN(C)C1CCN(C(=O)c2ccc(-c3nn4c(-c5ccc(C(F)(F)F)cc5)cnc4s3)cc2)CC1 [Compound 16] | < 50 | > 75 | < 50 | > 75
CN1CCN(C(=O)c2ccc(-c3nn4c(-c5ccc(C#N)cc5)cnc4s3)cc2)CC1 [Compound 17, 4-(2-(4-(4-methylpiperazine-1-carbonyl)phenyl)imidazo[2,1-b][1,3,4]thiadiazol-5-yl)benzonitrile] | < 50 | > 75 | < 50 | > 75
CN1CCN(C(=O)c2ccc(-c3nn4c(-c5ccc(F)cc5)cnc4s3)cc2)CC1 [Compound 18, (4-(5-(4-fluorophenyl)imidazo[2,1-b][1,3,4]thiadiazol-2-yl)phenyl)(4-methylpiperazin-1-yl)methanone] | 50 to 200 | > 75 | < 50 | > 75
COC(=O)c1ccc(-c2cnc3sc(-c4ccc(C(=O)N5CCN(C)CC5)cc4)nn23)cc1 [Compound 19, methyl 4-(2-(4-(4-methylpiperazine-1-carbonyl)phenyl)imidazo[2,1-b][1,3,4]thiadiazol-5-yl)benzoate] | 200 to 800 | > 75 | 50 to 200 | > 75
CN1CCN(C(=O)c2ccc(-c3nn4c(-c5ccncc5)cnc4s3)cc2)CC1 [Compound 20, (4-methylpiperazin-1-yl)(4-(5-(pyridin-4-yl)imidazo[2,1-b][1,3,4]thiadiazol-2-yl)phenyl)methanone] | 200 to 800 | > 75 | 50 to 200 | > 75
CN1CCN(C(=O)c2ccc(-c3nn4c(-c5ccc(C(F)(F)F)cc5)cnc4s3)cc2)CC1 [Compound 21, (4-methylpiperazin-1-yl)(4-(5-(4-(trifluoromethyl)phenyl)imidazo[2,1-b][1,3,4]thiadiazol-2-yl)phenyl)methanone] | < 50 | > 75 | < 50 | > 75
CN1CCN(C(=O)c2ccc(-c3nn4c(-c5ccc(Cl)cc5)cnc4s3)cc2)CC1 [Compound 22, (4-(5-(4-chlorophenyl)imidazo[2,1-b][1,3,4]thiadiazol-2-yl)phenyl)(4-methylpiperazin-1-yl)methanone] | < 50 | > 75 | < 50 | > 75
CN1CCN(C(=O)c2ccc(-c3nn4c(-c5ccc(C(F)(F)F)c(F)c5)cnc4s3)cc2)CC1 [Compound 23, (4-(5-(3-fluoro-4-(trifluoromethyl)phenyl)imidazo[2,1-b][1,3,4]thiadiazol-2-yl)phenyl)(4-methylpiperazin-1-yl)methanone] | 200 to 800 | > 75 | 200 to 800 | > 75
CN1CCN(C(=O)c2ccc(-c3nn4c(-c5ccc(C#N)c(F)c5)cnc4s3)cc2)CC1 [Compound 24, 2-fluoro-4-(2-(4-(4-methylpiperazine-1-carbonyl)phenyl)imidazo[2,1-b][1,3,4]thiadiazol-5-yl)benzonitrile] | 50 to 200 | > 75 | 50 to 200 | > 75
CN1CCN(C(=O)c2ccc(-c3nn4c(-c5ccc([N+](=O)[O-])cc5)cnc4s3)cc2)CC1 [Compound 25, (4-methylpiperazin-1-yl)(4-(5-(4-nitrophenyl)imidazo[2,1-b][1,3,4]thiadiazol-2-yl)phenyl)methanone] | < 50 | > 75 | < 50 | > 75
CN1CCN(C(=O)c2ccc(-c3nn4c(-c5ccc(F)cc5F)cnc4s3)cc2)CC1 [Compound 26, (4-(5-(2,4-difluorophenyl)imidazo[2,1-b][1,3,4]thiadiazol-2-yl)phenyl)(4-methylpiperazin-1-yl)methanone] |  | 25 to 50 |  | 25 to 50
CN1CCN(C(=O)c2ccc(-c3nn4c(-c5ccc(C#N)nc5)cnc4s3)cc2)CC1 [Compound 27, 5-(2-(4-(4-methylpiperazine-1-carbonyl)phenyl)imidazo[2,1-b][1,3,4]thiadiazol-5-yl)picolinonitrile] |  | 25 to 50 |  | 25 to 50
CN1CCN(C(=O)c2ccc(-c3nn4c(-c5ccc(F)nc5)cnc4s3)cc2)CC1 [Compound 28, (4-(5-(6-fluoropyridin-3-yl)imidazo[2,1-b][1,3,4]thiadiazol-2-yl)phenyl)(4-methylpiperazin-1-yl)methanone] | 800 to 1500 | 50 to 75 | 200 to 800 | > 75
CN1CCN(C(=O)c2ccc(-c3nn4c(-c5ccc(C(F)(F)F)nc5)cnc4s3)cc2)CC1 [Compound 29, (4-methylpiperazin-1-yl)(4-(5-(6-(trifluoromethyl)pyridin-3-yl)imidazo[2,1-b][1,3,4]thiadiazol-2-yl)phenyl)methanone] |  | 25 to 50 |  | 25 to 50
N#Cc1ccc(-c2cnc3sc(-c4ccc(C(=O)N5CCCC5)cc4)nn23)cc1 [Compound 30, 4-(2-(4-(pyrrolidine-1-carbonyl)phenyl)imidazo[2,1-b][1,3,4]thiadiazol-5-yl)benzonitrile] | < 50 | > 75 | < 50 | > 75
N#Cc1ccc(-c2cnc3sc(-c4ccc(C(=O)OCCN5CCCC5)cc4)nn23)cc1 [Compound 31, 2-(pyrrolidin-1-yl)ethyl 4-(5-(4-cyanophenyl)imidazo[2,1-b][1,3,4]thiadiazol-2-yl)benzoate] |  | 25 to 50 |  | 25 to 50
N#Cc1ccc(-c2cnc3sc(-c4ccc(C(=O)OCCCCCO)cc4)nn23)cc1 [Compound 34, 5-hydroxypentyl 4-(5-(4-cyanophenyl)imidazo[2,1-b][1,3, 4]thiadiazol-2-yl)benzoate] |  | 25 to 50 |  | 25 to 50
N#Cc1ccc(-c2cnc3sc(-c4ccc(C(=O)SCCO)cc4)nn23)cc1 [Compound 35, S-(2-hydroxyethyl)4-(5-(4-cyanophenyl)imidazo[2,1-b][1,3,4]thiadiazol-2-yl)benzothioate] |  | 25 to 50 |  | 25 to 50
CN(C)CCNC(=O)c1ccc(-c2nn3c(-c4ccc(C#N)cc4)cnc3s2)cc1 [Compound 36, 4-(5-(4-cyanophenyl)imidazo[2,1-b][1,3,4]thiadiazol-2-yl)-N-(2-(dimethylamino)ethyl)benzamide] | < 50 | > 75 | < 50 | > 75
N#Cc1ccc(-c2cnc3sc(-c4ccc(C(=O)NCCCN5CCOCC5)cc4)nn23)cc1 [Compound 37, 4-(5-(4-cyanophenyl)imidazo[2,1-b][1,3,4]thiadiazol-2-yl)-N-(3-morpholinopropyl)benzamide] | < 50 | > 75 | < 50 | > 75
N#Cc1ccc(-c2cnc3sc(-c4ccc(C(=O)NCCN5CCCC5)cc4)nn23)cc1 [Compound 38, 4-(5-(4-cyanophenyl)imidazo[2,1-b][1,3,4]thiadiazol-2-yl)-N-(2-(pyrrolidin-1-yl)ethyl)benzamide] | < 50 | > 75 | < 50 | > 75
N#Cc1ccc(-c2cnc3sc(-c4ccc(C(=O)NCCCO)cc4)nn23)cc1 [Compound 39, 4-(5-(4-cyanophenyl)imidazo[2,1-b][1,3,4]thiadiazol-2-yl)-N-(3-hydroxypropyl)benzamide] | < 50 | > 75 | < 50 | > 75
N#Cc1ccc(-c2cnc3sc(-c4ccc(C(=O)NCCO)cc4)nn23)cc1 [Compound 40, 4-(5-(4-cyanophenyl)imidazo[2,1-b][1,3,4]thiadiazol-2-yl)-N-(2-hydroxyethyl)benzamide] | < 50 | > 75 | < 50 | > 75
CC1CCCCN1C(=O)c1ccc(-c2nn3c(-c4ccc(C#N)cc4)cnc3s2)cc1 (centres unmarked) [Compound 41, 4-(2-(4-(2-methylpiperidine-1-carbonyl)phenyl)imidazo[2,1-b][1,3,4]thiadiazol-5-yl)benzonitrile] | < 50 | > 75 | < 50 | > 75
